Experimental findings from ChEMBL document CHEMBL1130560, “Kinetic studies of the reaction of S-nitroso-L-cysteine with L-cysteine” (Bioorg Med Chem Lett, 1997) are described below.

The data set in a line: First order rate constant for spontaneous decomposition. The format is ADME.

Regarding `N[C@@H](CSN=O)C(=O)O`, the Rate constant worked out at 0.0000146 s⁻¹.
